Values of other authors in patent publication US10589003B2, “Methods for coating surfaces with antimicrobial agents” (The Board of Regents of the University of Texas System, priority 2005, dated 2020).

Tested on: Pseudomonas aeruginosa
Settings: agent on its own; gentian violet after impregnating polymer surfaces incl. polyvinylchloride

## CN(C)c1ccc(C(=C2C=CC(=[N+](C)C)C=C2)c2ccc(N(C)C)cc2)cc1 [gentian violet]
  activity against Pseudomonas aeruginosa: no activity

## [H]/N=C(\N/C(=N/[H])NCCCCCCNC(=N)NC(=N)Nc1ccc(Cl)cc1)Nc1ccc(Cl)cc1 [chlorhexidine]
  activity against Pseudomonas aeruginosa: not highly active
